# Assay results published in ChEMBL document CHEMBL1201862, “PubChem BioAssay data set” (2004).
#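 Step 1: Grow cells in 96-well plates. Step 2: Expose to compound for 48 hours at 5 concentrations. Step 3: Interpolate endpoints linearly; if unreached, use highest concentration. At the GI50, growth is halved.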 Activity calls are given as the source filed them. No stated cut-off is given here; in the data, active = GI50 up to about 1.1 µM and inactive = higher.
# Experiments:
# Experiment in all cases: inhibition of tumour cell growth, NCI panel, 48 h
# SR = tested on: SR
# NCI-H460 = tested on: NCI-H460
# NCI-H226 = tested on: NCI-H226
# TK-10 = tested on: TK-10
# DU-145 = tested on: DU-145
# U-251 = tested on: U-251
# MCF7 = tested on: MCF7
# CCRF-CEM = tested on: CCRF-CEM
# SK-MEL-5 = tested on: SK-MEL-5
# SF-268 = tested on: SF-268
# NCI-H522 = tested on: NCI-H522
# NCI/ADR-RES = tested on: NCI/ADR-RES
# HCC 2998 = tested on: HCC 2998
# UO-31 = tested on: UO-31
# A498 = tested on: A498
# OVCAR-3 = tested on: OVCAR-3
# UACC-257 = tested on: UACC-257
# T47D = tested on: T47D
# HT-29 = tested on: HT-29
# Hs-578T = tested on: Hs-578T
# MOLT-4 = tested on: MOLT-4
# K562 = tested on: K562
# ACHN = tested on: ACHN
# RPMI-8226 = tested on: RPMI-8226
# MDA-N = tested on: MDA-N
# 786-0 = tested on: 786-0
# SF-539 = tested on: SF-539
# OVCAR-8 = tested on: OVCAR-8
# OVCAR-4 = tested on: OVCAR-4
# HCT-116 = tested on: HCT-116
# Malme-3M = tested on: Malme-3M
# SK-MEL-2 = tested on: SK-MEL-2
# UACC-62 = tested on: UACC-62
# SNB-75 = tested on: SNB-75
# BT-549 = tested on: BT-549
# RXF 393 = tested on: RXF 393
# HL-60 = tested on: HL-60
# M14 = tested on: M14
# COLO 205 = tested on: COLO 205
# OVCAR-5 = tested on: OVCAR-5
# SK-OV-3 = tested on: SK-OV-3
# MDA-MB-435 = tested on: MDA-MB-435
# A549 = tested on: A549
# HOP-62 = tested on: HOP-62
# SN12C = tested on: SN12C
# IGROV-1 = tested on: IGROV-1
# PC-3 = tested on: PC-3
# SF-295 = tested on: SF-295
# NCI-H23 = tested on: NCI-H23
# EKVX = tested on: EKVX
# SK-MEL-28 = tested on: SK-MEL-28
# KM12 = tested on: KM12
# MDA-MB-231 = tested on: MDA-MB-231
# CAKI-1 = tested on: CAKI-1
# HOP-92 = tested on: HOP-92
# HCT-15 = tested on: HCT-15
# SW-620 = tested on: SW-620
# SNB-19 = tested on: SNB-19
# LOX IMVI = tested on: LOX IMVI
smiles,measurement,setting,value
COC(=O)[C@@H]1C=CCN1S(=O)(=O)c1ccc(C)cc1,GI50,SR,20.5 µM (inactive)
same,GI50,NCI-H460,42.5 µM (inactive)
same,GI50,NCI-H226,> 100 µM (inactive)
same,GI50,TK-10,> 100 µM (inactive)
same,GI50,DU-145,> 100 µM (inactive)
same,GI50,U-251,31.1 µM (inactive)
same,GI50,MCF7,> 100 µM (inactive)
same,GI50,CCRF-CEM,21.8 µM (inactive)
same,GI50,SK-MEL-5,59.6 µM (inactive)
same,GI50,SF-268,> 100 µM (inactive)
same,GI50,NCI-H522,98.4 µM (inactive)
same,GI50,NCI/ADR-RES,> 100 µM (inactive)
same,GI50,HCC 2998,70.6 µM (inactive)
same,GI50,UO-31,> 100 µM (inactive)
same,GI50,A498,> 100 µM (inactive)
same,GI50,OVCAR-3,50.8 µM (inactive)
same,GI50,UACC-257,> 100 µM (inactive)
same,GI50,T47D,> 100 µM (inactive)
same,GI50,HT-29,> 100 µM (inactive)
same,GI50,Hs-578T,> 100 µM (inactive)
same,GI50,MOLT-4,37.4 µM (inactive)
same,GI50,K562,31.9 µM (inactive)
same,GI50,ACHN,> 100 µM (inactive)
same,GI50,RPMI-8226,> 100 µM (inactive)
same,GI50,MDA-N,29.2 µM (inactive)
same,GI50,786-0,32.9 µM (inactive)
same,GI50,SF-539,60.1 µM (inactive)
same,GI50,OVCAR-8,> 100 µM (inactive)
same,GI50,OVCAR-4,> 100 µM (inactive)
same,GI50,HCT-116,34.2 µM (inactive)
same,GI50,Malme-3M,71.6 µM (inactive)
same,GI50,SK-MEL-2,> 100 µM (inactive)
same,GI50,UACC-62,38 µM (inactive)
same,GI50,SNB-75,> 100 µM (inactive)
same,GI50,BT-549,> 100 µM (inactive)
same,GI50,RXF 393,50.5 µM (inactive)
same,GI50,HL-60,24.2 µM (inactive)
same,GI50,M14,48.1 µM (inactive)
same,GI50,COLO 205,> 100 µM (inactive)
same,GI50,OVCAR-5,> 100 µM (inactive)
same,GI50,SK-OV-3,> 100 µM (inactive)
same,GI50,MDA-MB-435,13.2 µM (inactive)
same,GI50,A549,> 100 µM (inactive)
same,GI50,HOP-62,> 100 µM (inactive)
same,GI50,SN12C,> 100 µM (inactive)
same,GI50,IGROV-1,> 100 µM (inactive)
same,GI50,PC-3,> 100 µM (inactive)
same,GI50,SF-295,> 100 µM (inactive)
same,GI50,NCI-H23,> 100 µM (inactive)
same,GI50,EKVX,> 100 µM (inactive)
same,GI50,SK-MEL-28,93.1 µM (inactive)
same,GI50,KM12,> 100 µM (inactive)
same,GI50,MDA-MB-231,> 100 µM (inactive)
same,GI50,CAKI-1,20.2 µM (inactive)
same,GI50,HOP-92,55.5 µM (inactive)
same,GI50,HCT-15,37.5 µM
same,GI50,SW-620,> 100 µM (inactive)
same,GI50,SNB-19,> 100 µM (inactive)
same,GI50,LOX IMVI,> 100 µM (inactive)
CC(=O)c1cc2c(s1)C(=O)c1ccccc1C2=O,GI50,SR,5.66 µM (inactive)
same,GI50,NCI-H460,1.05 µM (active)
same,GI50,NCI-H226,2.61 µM (inactive)
same,GI50,TK-10,5.47 µM (inactive)
same,GI50,DU-145,1.26 µM (inactive)
same,GI50,U-251,2.37 µM (inactive)
same,GI50,MCF7,2.08 µM (inactive)
same,GI50,CCRF-CEM,1.96 µM (inactive)
same,GI50,SK-MEL-5,0.26 µM (active)
same,GI50,SF-268,2.73 µM (inactive)
same,GI50,NCI-H522,0.944 µM (active)
same,GI50,NCI/ADR-RES,1.89 µM (inactive)
same,GI50,HCC 2998,5.37 µM (inactive)
same,GI50,UO-31,1.79 µM (inactive)
same,GI50,A498,29.3 µM (inactive)
same,GI50,OVCAR-3,0.513 µM (active)
same,GI50,UACC-257,1.57 µM (inactive)
same,GI50,T47D,4.42 µM (inactive)
same,GI50,HT-29,3.4 µM (inactive)
same,GI50,Hs-578T,2.84 µM (inactive)
same,GI50,MOLT-4,2.48 µM (inactive)
same,GI50,K562,2.09 µM (inactive)
same,GI50,ACHN,1.36 µM (inactive)
same,GI50,RPMI-8226,2.38 µM (inactive)
same,GI50,MDA-N,1.63 µM (inactive)
same,GI50,786-0,5.93 µM (inactive)
same,GI50,SF-539,1.44 µM (inactive)
same,GI50,OVCAR-8,1.74 µM (inactive)
same,GI50,OVCAR-4,3.52 µM (inactive)
same,GI50,HCT-116,1.68 µM (inactive)
same,GI50,Malme-3M,1.28 µM (inactive)
same,GI50,SK-MEL-2,4.31 µM (inactive)
same,GI50,UACC-62,2.51 µM (inactive)
same,GI50,SNB-75,2.4 µM (inactive)
same,GI50,BT-549,1.62 µM (inactive)
same,GI50,RXF 393,8.18 µM (inactive)
same,GI50,HL-60,2.13 µM (inactive)
same,GI50,M14,0.557 µM (active)
same,GI50,COLO 205,4.72 µM (inactive)
same,GI50,OVCAR-5,5.25 µM (inactive)
same,GI50,SK-OV-3,15.3 µM (inactive)
same,GI50,MDA-MB-435,0.791 µM (active)
same,GI50,A549,3.52 µM (inactive)
same,GI50,HOP-62,2.44 µM (inactive)
same,GI50,SN12C,2.59 µM (inactive)
same,GI50,IGROV-1,2.01 µM (inactive)
same,GI50,PC-3,3.24 µM (inactive)
same,GI50,SF-295,2.79 µM (inactive)
same,GI50,NCI-H23,0.457 µM (active)
same,GI50,EKVX,4.39 µM (inactive)
same,GI50,SK-MEL-28,8.05 µM (inactive)
same,GI50,KM12,2.04 µM (inactive)
same,GI50,MDA-MB-231,3.13 µM (inactive)
same,GI50,CAKI-1,9.53 µM (inactive)
same,GI50,HOP-92,4.18 µM (inactive)
same,GI50,HCT-15,0.61 µM
same,GI50,SW-620,0.951 µM (active)
same,GI50,SNB-19,0.424 µM (active)
same,GI50,LOX IMVI,0.346 µM (active)
